Measurements reported in article PMC4646407, “Tripartite ATP-independent Periplasmic (TRAP) Transporters Use an Arginine-mediated Selectivity Filter for High Affinity Substrate Binding” (The Journal of Biological Chemistry, 2015).

Experiments:
SiaP (SiaP-His6) [1] = molecular target: SiaP (SiaP-His6) (Haemophilus influenzae, UniProt P44542, R170K/F193W); conditions: 50 mM Tris/HCl, pH 8.0; 0.5 μM protein
SiaP (SiaP-His6) [2] = molecular target: SiaP (SiaP-His6) (Haemophilus influenzae, UniProt P44542, F193W); conditions: 50 mM Tris/HCl, pH 8.0
SiaP (SiaP-His6) [3] = molecular target: T1, SiaP (SiaP-His6) (Haemophilus influenzae, UniProt P44542); test: intrinsic tyrosine fluorescence titration; format: binding; conditions: 50 mM Tris/HCl, pH 8.0; 0.05 μM protein
T1 construct: C-terminal His6 tag; expressed in E. coli BL21(DE3) pLysS (pET21b, pAH16) with native signal peptide, purified from periplasm
T1 sequence (P44542 24-329): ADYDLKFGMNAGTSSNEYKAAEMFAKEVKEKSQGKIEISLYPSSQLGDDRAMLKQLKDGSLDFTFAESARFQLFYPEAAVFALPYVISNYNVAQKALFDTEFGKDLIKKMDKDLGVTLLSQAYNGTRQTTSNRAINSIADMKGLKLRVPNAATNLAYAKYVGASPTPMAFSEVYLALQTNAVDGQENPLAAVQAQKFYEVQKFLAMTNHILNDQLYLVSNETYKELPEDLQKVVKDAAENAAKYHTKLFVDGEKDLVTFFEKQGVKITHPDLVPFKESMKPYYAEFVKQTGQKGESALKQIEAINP

Chain of SiaP (SiaP-His6) (Haemophilus influenzae, UniProt P44542, F193W) (P44542 24-329 F193W): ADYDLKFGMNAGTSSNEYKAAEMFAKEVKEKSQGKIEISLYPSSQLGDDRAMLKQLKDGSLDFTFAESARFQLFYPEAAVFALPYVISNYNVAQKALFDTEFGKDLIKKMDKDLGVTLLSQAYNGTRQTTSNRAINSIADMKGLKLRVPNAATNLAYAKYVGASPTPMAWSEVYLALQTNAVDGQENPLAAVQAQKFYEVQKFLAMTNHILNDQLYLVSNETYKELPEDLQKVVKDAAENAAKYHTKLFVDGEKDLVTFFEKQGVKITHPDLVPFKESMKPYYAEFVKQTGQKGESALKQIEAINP
Chain of SiaP (SiaP-His6) (Haemophilus influenzae, UniProt P44542, R170K/F193W) (P44542 24-329 R170K/F193W): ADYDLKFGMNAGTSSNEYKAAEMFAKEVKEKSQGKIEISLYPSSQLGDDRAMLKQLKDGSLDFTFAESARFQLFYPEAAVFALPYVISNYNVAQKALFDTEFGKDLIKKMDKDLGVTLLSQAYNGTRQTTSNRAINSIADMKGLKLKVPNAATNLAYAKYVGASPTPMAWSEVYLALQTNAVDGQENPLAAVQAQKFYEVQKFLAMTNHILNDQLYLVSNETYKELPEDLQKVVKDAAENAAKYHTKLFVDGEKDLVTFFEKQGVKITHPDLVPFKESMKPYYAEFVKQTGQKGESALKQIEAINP

CC(=O)N[C@H]1[C@H]([C@H](O)[C@H](O)CO)OC(O)(C(=O)O)C[C@@H]1O (stereo partly drawn) [Neu5Ac]
Kd (SiaP (SiaP-His6) [1]): 38700 ± 8300 µM | Kd (SiaP (SiaP-His6) [2]): 1.21 ± 0.03 µM | Kd (SiaP (SiaP-His6) [3]): 0.14 ± 0.04 µM
